We go through one compound from patent publication US20250345318A1, “COMPOUND AND USE THEREOF IN PREVENTING OR TREATING RADIATION DAMAGE” (SIMCERE PHARMACEUTICAL CO., LTD., priority 2022, published 2025).

For assay [1], the system named is C57BL/6 male mice. The assay can be described thus: Small intestine epithelial injury after abdominal X-ray irradiation at 3 or 6 Gy (Example 8). The format is in vivo. To be noted: for small intestine villus length: 4 days after. On the procedure:
CS7BL/6 male mice (24.8±1.6 g in body weight) aged 10 weeks were divided into 5 groups of 6 mice each. JAC4 (100 mg/kg) or an equal volume of vehicle (polyethylene glycol:ethanol:physiological saline=47.5:7.5:50, v/v/v) was orally administered to the mice once daily for 7 consecutive days. After that, the mice were subjected to abdominal X-ray irradiation at different doses (3 or 6 Gy) and JAC4 or vehicle treatment was continued. After 4 days, the small intestine tissues were collected for HE staining and inspection, the small intestine villus length and the ileum crypt height in all groups were measured and statistically analyzed, and the small intestine was histopathologically scored. The specific procedures are as follows: 3 mice were randomly selected from each group for statistical analysis of their small intestine tissue HE staining images, and for each mouse, 6 fields of view were randomly selected for inspection (*** p<0.001).

For another assay, the system named is JWA^IEC-wt mice. The assay can be described thus: X-ray-induced intestinal injury in JWA^IEC-wt mice (Example 12). The format is in vivo. The following applies: ABI 10 Gy. The text has this:
The Model Animal Research Institute of Nanjing University was commissioned to conduct the construction of JWA^flox/+ A129 mice and embryo cryopreservation, preservation, and thawing. These mice were bred with wild-type C57/BL6 mice for over six generations to give mice of C57/BL6 background. Villin-cre mice, provided by Shanghai Model Organisms Center, Inc., were C57/BL6 mice. The JWA-knockout mice (JWA^ko) and their littermate control (JWA^wt) counterparts were derived from an in-house conservation breed. The JWA^flox/flox mice were bred from the JWA^flox/+ mice. The intestinal epithelial JWA-knockout mice (JWA^IEC-ko) and control group (JWA^IEC-wt) were obtained through breeding JWA^flex/flex mice with Villin-cre mice.
The off-target model was established using JWA^IEC-ko mice and their JWA^IEC-wt littermates (8 weeks old), and the mice receiving radiation were divided into 4 groups: (1) a JWA^IEC-wt mice+vehicle group (n=5); (2) a JWA^IEC-wt mice+JAC4 group (n=5); (3) a JWA^IEC-ko mice+vehicle group (n=6); (4) a JWA^IEC-ko mice+JAC4 group (n=5). All mice were subjected to abdominal irradiation at 10 Gy. 7 days before radiation, 10 mg/kg JAC4 or an equal volume of vehicle (polyethylene glycol:ethanol:physiological saline=40:7.5:52.5, v/v/v) was administered intragastrically daily until the end of modeling. The blank control group (wild type, n=6) was not irradiated, and the modeling was terminated on day 4 after radiation.
To verify whether the protective effect of JAC4 on X-ray radiation-induced intestinal damage in mice is dependent on the expression of JWA, the present disclosure verified the targeting effect of JAC4 using JWA^IEC-ko mice.
JWA^IEC-ko and JWA^IEC-wt mice were treated daily with JAC4 (10 mg/kg) or an equal volume of vehicle (polyethylene glycol:ethanol:physiological saline=47.5:7.5:50, v/v/v), respectively, from 7 days before the ABI (10 Gy) exposure to 4 days after the exposure. […] Meanwhile, the contents of TNF-α and IL-1β were consistent with the results of FD4. […] As shown in panels E and F, ABI increased the activity of GSH-Px (530.8±207.8 vs. 406.2±197.9 U/mL) and decreased the activity of CAT (89.4 f 0.4 vs. 68.7±14.2 U/mL). JAC4 further enhanced the antioxidant enzymes in JWA^IEC-wt mice (815.1±203.9 vs. 530.8±207.8 U/mL and 85.9±8.2 vs. 68.7±14.2 U/mL; P<0.05, P<0.05). […] Intestinal tissues were isolated, and the expression of apoptotic molecules was detected by Western blot (FIG. 16J). In wild-type mice, compared with the control group, X-rays increased the expression of Bax and cleaved PARP1 in the small intestine.

Assay [2] concerns C57BL/6 male mice. The assay can be described thus: Survival of mice after abdominal X-ray irradiation (Example 2). The format is in vivo. The protocol: C57BL/6 male mice (26.7±1.0 g in body weight) aged 10 weeks were divided into two groups of 10 mice each. After acclimating to the environment, JAC4 (100 mg/kg) or an equal volume of vehicle (polyethylene glycol:ethanol:physiological saline=47.5:7.5:50, v/v/v) was orally administered to the mice once daily for 7 consecutive days. After that, the mice were subjected to abdominal X-ray irradiation (12 Gy) and JAC4 or vehicle treatment was continued. After 3 days, the administration of JAC4 or vehicle was discontinued. The status was observed daily and the body weights of the mice were recorded.

Another assay concerns IEC-6 cells. Put plainly: γ-H2AX immunofluorescence in irradiated IEC-6 cells (Example 13). The assay is classed as cell-based. The following applies: JAC4 + radiation. On the procedure:
The cell immunofluorescent images of γ-H2AX in different treatment groups were recorded after the IEC-6 cells were irradiated, and the mean fluorescence intensity of individual cells (***p<0.001) was measured using Image J. The results are shown in FIG. 19.

Setting [3] is: JAC4 100 mg/kg oral + abdominal X-ray 3 Gy.
Where [4] appears, read: JAC4 100 mg/kg oral + abdominal X-ray 6 Gy.
The mark [5] stands for this setting: JWA^IEC-wt mice, JAC4 10 mg/kg daily.

The structures appear in SMILES notation.

As for `c1ccc(CSc2nnc(C3COc4ccccc4O3)o2)nc1` (centres unmarked) [JAC4], in the assay on C57BL/6 male mice [1] (setting [3]), the ileum crypt height was 62.06±3.26 μm, the “small intestine histopathological score” value is given as 1.50±0.55 and the “small intestine villus length” value is 278.19±25.21 μm. Further, in the assay on C57BL/6 male mice [1] (setting [4]), the ileum crypt height amounted to 57.32±4.43 μm, the “small intestine histopathological score” value was 4.17±0.98 and the “small intestine villus length” value is listed as 278.25±23.79 μm. Further, in the assay on JWA^IEC-wt mice (setting [5]), the “plasma CAT activity” value is 85.9±8.2 U/mL, the “plasma GSH-Px activity” value is on record as 815.1±203.9 U/mL, the “plasma IL-1β” value is 57.76 ± 5.9 ng/mL and the “plasma TNF-α” value turned out to be 583.2 ± 78.2 ng/mL. In the assay with JWA^IEC-wt mice (JWA^IEC-wt mice, JAC4 10 mg/kg daily, day 4), the “plasma FD4 content” value came out at 6719.9 ± 1823.5 ng/mL. In addition, in the assay with JWA^IEC-wt mice (wild-type mice, JAC4 10 mg/kg), the “expression of Bax and cleaved PARP1 in small intestine (Western blot)” value was “downregulated”. Also, the “mean survival after radiation” value with C57BL/6 male mice [2] (JAC4 100 mg/kg oral once daily, 7 days before to 3 days after abdominal X-ray 12 Gy, observation day 30) worked out at 16.8 ± 9.0 days. In addition, the “number of mice died” value in the assay with C57BL/6 male mice [2] (JAC4 100 mg/kg oral, ABI 12 Gy, 10 mice per group, day 15) stood at 4 mice. Besides, the “number of mice survived” value in the assay on C57BL/6 male mice [2] (JAC4 100 mg/kg oral, ABI 12 Gy, 10 mice per group, day 15, when all vehicle mice had died) is listed as 6 mice. In the assay on C57BL/6 male mice [2] (JAC4 100 mg/kg oral, ABI 12 Gy, vs vehicle), the “weight loss after radiation” value was “slower”. Moreover, the “mean fluorescence intensity of γ-H2AX” value in the assay with IEC-6 cells amounted to 26.00±1.79.
